For one assay, the target named is α4β7 integrin (Homo sapiens (Human), UniProt P13612+P26010). In words: Integrin Adhesion Assay: Protocol 4 (MAdCAM-coated plate, RPMI-8866 cells with stable LOF mutation of the ITGB1 gene). Format: cell-based. Conditions: Protocol 4; RPMI-8866 cells with LOF mutation of ITGB1, MAdCAM; read-out: Mean IC50 α4β7 KO. The method in brief:
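RPMI-8866 cells with CRISPR/Cas9 knockout of ITGB1 (2×10^6/mL) were added to MAdCAM-coated wells with compound (1% DMSO) in HEPES/NaCl buffer with 1 mM MnCl2, 0.1 mM CaCl2 and 1% BSA, then incubated 1 h at 37 °C. After four washes, adherent cells were quantified by CellTiter-Glo luminescence. Percent inhibition versus DMSO and control compound was fitted to 4-parameter curves.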

Another assay addresses α4β1 integrin (Homo sapiens (Human), UniProt P05556+P13612). In words: Integrin Adhesion Assay: Protocol 5 (VCAM-coated plate, RPMI-8866 cells with stable LOF mutation of the ITGB7 gene). Type of assay: cell-based. Conditions: Protocol 5; RPMI-8866 cells with LOF mutation of ITGB7, VCAM; read-out: Mean IC50 α4β1 KO. Put shortly: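 RPMI-8866 B cells with CRISPR/Cas9 ITGB7 knockout (clonal, verified by flow cytometry) adhered to VCAM-coated wells for 1 h at 37° C in HEPES/NaCl buffer with 1 mM MnCl2, 0.1 mM CaCl2, 1% BSA, 1% DMSO. Bound cells quantified by CellTiter-Glo luminescence after washing; % inhibition versus DMSO and control, 4-parameter fit.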

Data on 39 compounds can be found in US20250313535A1, “ALPHA 4 BETA 7 INTEGRIN MODULATORS AND USES THEREOF” (DICE MOLECULES SV, INC., priority 2022, published 2025).

pIC50: −log10 of the molar value. Bounds are passed on as bounds.

Sequence of α4β1 integrin (P13612 34-1032): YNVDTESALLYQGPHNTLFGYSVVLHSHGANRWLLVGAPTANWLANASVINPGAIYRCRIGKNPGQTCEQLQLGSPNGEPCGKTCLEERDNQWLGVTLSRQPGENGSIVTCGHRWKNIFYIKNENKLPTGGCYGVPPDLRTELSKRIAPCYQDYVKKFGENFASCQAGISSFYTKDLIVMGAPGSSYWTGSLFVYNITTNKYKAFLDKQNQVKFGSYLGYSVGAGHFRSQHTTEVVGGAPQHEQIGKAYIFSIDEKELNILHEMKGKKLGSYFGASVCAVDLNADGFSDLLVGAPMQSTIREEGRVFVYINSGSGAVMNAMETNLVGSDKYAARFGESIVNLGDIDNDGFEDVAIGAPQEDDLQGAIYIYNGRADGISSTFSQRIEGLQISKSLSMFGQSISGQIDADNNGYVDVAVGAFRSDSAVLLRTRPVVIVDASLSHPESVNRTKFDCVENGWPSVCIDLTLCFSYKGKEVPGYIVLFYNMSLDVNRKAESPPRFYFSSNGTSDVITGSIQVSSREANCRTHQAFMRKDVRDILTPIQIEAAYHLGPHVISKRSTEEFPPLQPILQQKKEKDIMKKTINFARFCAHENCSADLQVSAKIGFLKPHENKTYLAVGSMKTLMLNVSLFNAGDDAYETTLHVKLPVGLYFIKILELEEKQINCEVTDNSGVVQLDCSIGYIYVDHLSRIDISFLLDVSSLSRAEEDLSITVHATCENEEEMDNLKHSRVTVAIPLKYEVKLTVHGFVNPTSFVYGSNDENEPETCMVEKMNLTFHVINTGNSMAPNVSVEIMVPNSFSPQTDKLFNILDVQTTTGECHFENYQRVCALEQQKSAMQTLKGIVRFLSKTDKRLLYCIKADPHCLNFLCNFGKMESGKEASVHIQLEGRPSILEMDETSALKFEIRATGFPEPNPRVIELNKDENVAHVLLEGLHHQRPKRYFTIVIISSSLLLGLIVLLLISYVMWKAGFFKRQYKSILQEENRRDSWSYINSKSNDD
Sequence of α4β1 integrin (P05556 21-798): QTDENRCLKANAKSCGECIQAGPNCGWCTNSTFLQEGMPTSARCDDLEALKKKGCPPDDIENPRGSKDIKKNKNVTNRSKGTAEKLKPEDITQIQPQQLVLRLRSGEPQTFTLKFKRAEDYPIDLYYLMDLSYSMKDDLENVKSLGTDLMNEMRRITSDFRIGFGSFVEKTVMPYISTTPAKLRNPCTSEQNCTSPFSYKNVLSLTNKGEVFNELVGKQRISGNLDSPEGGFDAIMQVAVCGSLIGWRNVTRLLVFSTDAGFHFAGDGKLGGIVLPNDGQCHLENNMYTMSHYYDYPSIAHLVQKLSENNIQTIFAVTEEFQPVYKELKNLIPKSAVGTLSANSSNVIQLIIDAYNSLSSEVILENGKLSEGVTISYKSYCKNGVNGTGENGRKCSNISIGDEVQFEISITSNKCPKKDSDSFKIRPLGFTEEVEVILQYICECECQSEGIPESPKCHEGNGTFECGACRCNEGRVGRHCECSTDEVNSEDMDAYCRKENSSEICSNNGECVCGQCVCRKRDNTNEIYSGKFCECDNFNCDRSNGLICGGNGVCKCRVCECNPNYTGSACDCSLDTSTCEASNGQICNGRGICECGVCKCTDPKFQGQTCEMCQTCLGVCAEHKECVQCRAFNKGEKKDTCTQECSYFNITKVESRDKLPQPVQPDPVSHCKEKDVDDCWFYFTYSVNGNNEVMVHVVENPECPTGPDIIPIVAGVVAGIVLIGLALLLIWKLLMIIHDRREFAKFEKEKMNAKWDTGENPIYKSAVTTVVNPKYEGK
Sequence of α4β7 integrin (P13612 34-1032): as the sequence (P13612 34-1032) above
Sequence of α4β7 integrin (P26010 20-798): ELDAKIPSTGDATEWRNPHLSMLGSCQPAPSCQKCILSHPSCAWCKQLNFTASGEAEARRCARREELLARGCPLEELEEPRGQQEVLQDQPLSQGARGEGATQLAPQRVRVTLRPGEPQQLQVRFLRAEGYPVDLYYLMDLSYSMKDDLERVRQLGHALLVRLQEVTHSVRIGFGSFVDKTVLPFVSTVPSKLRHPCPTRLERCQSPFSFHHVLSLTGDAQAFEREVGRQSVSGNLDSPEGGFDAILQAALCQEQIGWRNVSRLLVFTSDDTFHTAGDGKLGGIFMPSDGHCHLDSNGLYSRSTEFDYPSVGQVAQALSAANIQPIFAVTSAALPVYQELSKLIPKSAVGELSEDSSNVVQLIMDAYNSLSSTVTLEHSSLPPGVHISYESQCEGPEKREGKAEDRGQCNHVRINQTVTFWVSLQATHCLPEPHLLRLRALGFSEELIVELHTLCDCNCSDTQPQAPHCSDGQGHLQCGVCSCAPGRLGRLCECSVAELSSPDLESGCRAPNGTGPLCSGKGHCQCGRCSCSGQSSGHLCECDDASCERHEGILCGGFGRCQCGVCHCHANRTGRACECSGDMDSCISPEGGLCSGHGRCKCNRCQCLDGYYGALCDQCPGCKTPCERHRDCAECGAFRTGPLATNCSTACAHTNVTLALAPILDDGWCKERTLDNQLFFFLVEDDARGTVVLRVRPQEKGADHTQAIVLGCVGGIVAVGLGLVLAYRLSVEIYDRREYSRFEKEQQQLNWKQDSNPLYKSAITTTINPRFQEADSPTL

As to `CC[C@@H]1CCCCN1Cc1cnc(-c2cccc3c(C[C@H](NC(=O)C4(C(F)(F)F)CCN(CC(F)(F)F)CC4)C(=O)O)cccc23)c2ccccc12` [Compound 931], the pIC50 (commonly the IC50 on a negative log10 scale, so that one unit is a factor of ten) was > 8.00 on α4β7 integrin and 6.00 to 7.00 at α4β1 integrin.

Take `CC[C@H]1CCCN1Cc1cnc(-c2cccc3c(C[C@H](NC(=O)C4(C(F)(F)F)CCN(CC(F)(F)F)CC4)C(=O)O)cccc23)c2ccccc12` [Compound 933]: the pIC50 was > 8.00 on α4β7 integrin and 6.00 to 7.00 at α4β1 integrin.

Regarding `CC[C@H]1CCCN1Cc1cnc(-c2cccc3c(C[C@H](NC(=O)C4(C(F)(F)F)CCN(CC(F)F)CC4)C(=O)O)cccc23)c2ccccc12` [Compound 934], the pIC50 at α4β7 integrin was > 8.00; at α4β1 integrin it was 6.00 to 7.00.

With `CC[C@@H]1CCCN1Cc1cnc(-c2cccc3c(C[C@H](NC(=O)C4(C(F)(F)F)CCN(CC(F)(F)F)CC4)C(=O)O)cccc23)c2ccccc12` [Compound 935], the pIC50 is > 8.00 at α4β7 integrin and < 6.00 on α4β1 integrin.

For the compound `CC[C@@H]1CCCN1Cc1cnc(-c2cccc3c(C[C@H](NC(=O)C4(C(F)(F)F)CCN(CC(F)F)CC4)C(=O)O)cccc23)c2ccccc12` [Compound 936], the values for the pIC50 at α4β7 integrin and on α4β1 integrin were > 8.00 and 6.00 to 7.00, respectively.

As for `COc1ccc(CN2CCC(F)CC2)cc1-c1cccc2c(C[C@H](NC(=O)C3(C(F)(F)F)CCN(CC(F)F)CC3)C(=O)O)cccc12` [Compound 940], the values for the negative-log IC50 (pIC50) at α4β7 integrin and on α4β1 integrin were > 8.00 and 6.00 to 7.00, respectively.

Take `COc1ccc(CN2CCC(C)(C)CC2)cc1-c1cccc2c(C[C@H](NC(=O)C3(C(F)(F)F)CCN(CC(F)F)CC3)C(=O)O)cccc12` [Compound 942]: the pIC50 at α4β7 integrin was > 8.00; on α4β1 integrin, 6.00 to 7.00.

On to `COc1ccc(CN2CC[C@H](F)C2)cc1-c1cccc2c(C[C@H](NC(=O)C3(C(F)(F)F)CCN(CC(F)F)CC3)C(=O)O)cccc12` [Compound 943], for which the pIC50 is > 8.00 at α4β7 integrin and 7.00 to 8.00 on α4β1 integrin.

Turning to `COc1ccc(CN2CC[C@@H](F)C2)cc1-c1cccc2c(C[C@H](NC(=O)C3(C(F)(F)F)CCN(CC(F)F)CC3)C(=O)O)cccc12` [Compound 944], the pIC50 at α4β7 integrin was > 8.00; on α4β1 integrin, 6.00 to 7.00.

Consider `Cc1cc(CN2CCC(C)(C)CC2)cnc1-c1cccc2c(C[C@H](NC(=O)C3(C(F)(F)F)CCN(C4COC4)CC3)C(=O)O)cccc12` [Compound 945], for which the pIC50 at α4β7 integrin is > 8.00; on α4β1 integrin, < 6.00.

On to `COc1ccc(CN2CCC(F)(F)CC2)c(OC)c1-c1cccc2c(C[C@H](NC(=O)C3(C(F)(F)F)CCN(CC(F)F)CC3)C(=O)O)cccc12` [Compound 946], for which the pIC50 at α4β7 integrin is 7.00 to 8.00; on α4β1 integrin it was 6.00 to 7.00.

Turning to `O=C(O)[C@H](Cc1cccc2c(-c3ncc(CN4CCC(F)(F)CC4)cc3C3CC3)cccc12)NC(=O)C1(C(F)(F)F)CCN(CC(F)(F)F)CC1` [Compound 947], the pIC50 was > 8.00 at α4β7 integrin and 6.00 to 7.00 at α4β1 integrin.

As for `O=C(O)[C@H](Cc1cccc2c(-c3ncc(CN4CCN(C5CC5)CC4)cc3C3CC3)cccc12)NC(=O)C1(C(F)(F)F)CCN(CC(F)(F)F)CC1` [Compound 948], the pIC50 was > 8.00 at α4β7 integrin and 6.00 to 7.00 at α4β1 integrin.

Consider `O=C(O)[C@H](Cc1cccc2c(-c3ncc(CN4CCC[C@@H](F)C4)cc3C3CC3)cccc12)NC(=O)C1(C(F)(F)F)CCN(CC(F)(F)F)CC1` [Compound 949], for which the pIC50 at α4β7 integrin is > 8.00; at α4β1 integrin, < 6.00.

As to `O=C(O)[C@H](Cc1cccc2c(-c3ncc(CN4CCC[C@H](F)C4)cc3C3CC3)cccc12)NC(=O)C1(C(F)(F)F)CCN(CC(F)(F)F)CC1` [Compound 950], the pIC50 is > 8.00 on α4β7 integrin and < 6.00 on α4β1 integrin.

With `O=C(O)[C@H](Cc1cccc2c(-c3ncc(CN4CCC(F)(F)CC4)cc3C3CC3)cccc12)NC(=O)C1(C(F)(F)F)CCN(CC(F)F)CC1` [Compound 951], the pIC50 on α4β7 integrin was > 8.00; at α4β1 integrin it was 6.00 to 7.00.

With `O=C(O)[C@H](Cc1cccc2c(-c3ncc(CN4CCN(C5CC5)CC4)cc3C3CC3)cccc12)NC(=O)C1(C(F)(F)F)CCN(CC(F)F)CC1` [Compound 952], the pIC50 at α4β7 integrin is > 8.00; at α4β1 integrin, 6.00 to 7.00.

As to `O=C(O)[C@H](Cc1cccc2c(-c3ncc(CN4CCC[C@H](F)C4)cc3C3CC3)cccc12)NC(=O)C1(C(F)(F)F)CCN(CC(F)F)CC1` [Compound 953], the pIC50 on α4β7 integrin was > 8.00; at α4β1 integrin, 6.00 to 7.00.

Consider `O=C(O)[C@H](Cc1cccc2c(-c3ncc(CN4CCC[C@@H](F)C4)cc3C3CC3)cccc12)NC(=O)C1(C(F)(F)F)CCN(CC(F)F)CC1` [Compound 954], for which the pIC50 at α4β7 integrin was > 8.00; on α4β1 integrin it was 6.00 to 7.00.

Take `O=C(O)[C@H](Cc1cccc2c(-c3ncc(CCN4CCCCC4)c4ccccc34)cccc12)NC(=O)C1(C(F)(F)F)CCN(CC(F)F)CC1` [Compound 955]: the figures for the pIC50 at α4β7 integrin and on α4β1 integrin were > 8.00 and 6.00 to 7.00, respectively.

For the compound `COc1cccc(CCN2CCCCC2)c1-c1cccc2c(C[C@H](NC(=O)C3(C(F)(F)F)CCN(CC(F)(F)F)CC3)C(=O)O)cccc12` [Compound 956], the pIC50 was > 8.00 on α4β7 integrin and 6.00 to 7.00 at α4β1 integrin.

For the compound `COc1ccc(CCN2CCC3(CCCCC3)CC2)c(OC)c1-c1cccc2c(C[C@H](NC(=O)C3(C(F)(F)F)CCN(CC(F)(F)F)CC3)C(=O)O)cccc12` [Compound 957], the negative logarithm of the IC50 (pIC50) at α4β7 integrin is > 8.00; at α4β1 integrin, 6.00 to 7.00.

Regarding `COc1ccc(CCN2CCC(F)(F)CC2)c(OC)c1-c1cccc2c(C[C@H](NC(=O)C3(C(F)(F)F)CCN(CC(F)(F)F)CC3)C(=O)O)cccc12` [Compound 958], the pIC50 was > 8.00 at α4β7 integrin and 6.00 to 7.00 on α4β1 integrin.

On to `COc1cccc(CCN2CCCC(F)C2)c1-c1cccc2c(C[C@H](NC(=O)C3(C(F)(F)F)CCN(CC(F)(F)F)CC3)C(=O)O)cccc12` (stereo partly drawn) [Compound 959], for which the pIC50 at α4β7 integrin is > 8.00; at α4β1 integrin it was 6.00 to 7.00.

As to `COc1cccc(CCN2CCC(C)(C)CC2)c1-c1cccc2c(C[C@H](NC(=O)C3(C(F)(F)F)CCN(CC(F)(F)F)CC3)C(=O)O)cccc12` [Compound 960], the values for the pIC50 at α4β7 integrin and at α4β1 integrin were > 8.00 and < 6.00, respectively.

With `COc1cccc(CCN2CCCC(C)(C)C2)c1-c1cccc2c(C[C@H](NC(=O)C3(C(F)(F)F)CCN(CC(F)(F)F)CC3)C(=O)O)cccc12` [Compound 961], the results for the pIC50 on α4β7 integrin and on α4β1 integrin were > 8.00 and 6.00 to 7.00, respectively.

Regarding `O=C(O)[C@H](Cc1cccc2c(-c3ncc(CCN4CCCCC4)c4ccccc34)cccc12)NC(=O)C1(C(F)(F)F)CCN(CC(F)(F)F)CC1` [Compound 962], the pIC50 is > 8.00 on α4β7 integrin and < 6.00 at α4β1 integrin.

Consider `COc1cc(CCN2CCCCC2)ccc1-c1cccc2c(C[C@H](NC(=O)C3(C(F)(F)F)CCN(CC(F)(F)F)CC3)C(=O)O)cccc12` [Compound 963], for which the pIC50 on α4β7 integrin is > 8.00; on α4β1 integrin, 6.00 to 7.00.

With `COc1cccc(CCN2CCC[C@H](F)C2)c1-c1cccc2c(C[C@H](NC(=O)C3(C(F)(F)F)CCN(CC(F)(F)F)CC3)C(=O)O)cccc12` [Compound 964], the results for the pIC50 on α4β7 integrin and at α4β1 integrin were 7.00 to 8.00 and < 6.00, respectively.

With `O=C(O)[C@H](Cc1cccc2c(-c3ncccc3CCN3CCCCC3)cccc12)NC(=O)C1(C(F)(F)F)CCN(CC(F)(F)F)CC1` [Compound 965], the pIC50 at α4β7 integrin was 7.00 to 8.00; on α4β1 integrin it was < 6.00.

Consider `COc1ccc(CCN2CCC(F)CC2)c(OC)c1-c1cccc2c(C[C@H](NC(=O)C3(C(F)(F)F)CCN(CC(F)(F)F)CC3)C(=O)O)cccc12` [Compound 966], for which the values for the pIC50 at α4β7 integrin and at α4β1 integrin were > 8.00 and 6.00 to 7.00, respectively.

Take `COc1ccc(CCN2CCC(C)(C)CC2)c(OC)c1-c1cccc2c(C[C@H](NC(=O)C3(C(F)(F)F)CCN(CC(F)(F)F)CC3)C(=O)O)cccc12` [Compound 967]: the pIC50 is > 8.00 on α4β7 integrin and 6.00 to 7.00 at α4β1 integrin.

For the compound `COc1cccc(CCN2CCC(F)CC2)c1-c1cccc2c(C[C@H](NC(=O)C3(C(F)(F)F)CCN(CC(F)(F)F)CC3)C(=O)O)cccc12` [Compound 968], the pIC50 at α4β7 integrin was > 8.00; on α4β1 integrin, 6.00 to 7.00.

On to `COc1cccc(CCN2CCC[C@H](F)C2)c1-c1cccc2c(C[C@H](NC(=O)C3(C(F)(F)F)CCN(CC(F)F)CC3)C(=O)O)cccc12` [Compound 969], for which the pIC50 on α4β7 integrin was > 8.00; on α4β1 integrin, < 6.00.

Take `COc1cccc(CCN2CCC[C@@H](F)C2)c1-c1cccc2c(C[C@H](NC(=O)C3(C(F)(F)F)CCN(CC(F)F)CC3)C(=O)O)cccc12` [Compound 970]: the values for the pIC50 at α4β7 integrin and at α4β1 integrin were > 8.00 and 6.00 to 7.00, respectively.

In the case of `COc1cccc(CCN2CCC(C)C(F)(F)CC2)c1-c1cccc2c(C[C@H](NC(=O)C3(C(F)(F)F)CCN(CC(F)F)CC3)C(=O)O)cccc12` (stereo partly drawn) [Compound 971], the pIC50 at α4β7 integrin was > 8.00; on α4β1 integrin it was 6.00 to 7.00.

Consider `COc1cccc(CCN2CCC(C)C(F)(F)CC2)c1-c1cccc2c(C[C@H](NC(=O)C3(C(F)(F)F)CCN(CC(F)(F)F)CC3)C(=O)O)cccc12` (stereo partly drawn) [Compound 972], for which the results for the pIC50 on α4β7 integrin and on α4β1 integrin were > 8.00 and 6.00 to 7.00, respectively.

As to `COc1cccc(CCN2CCC(c3ccccc3)CC2)c1-c1cccc2c(C[C@H](NC(=O)C3(C(F)(F)F)CCN(CC(F)(F)F)CC3)C(=O)O)cccc12` [Compound 973], the results for the pIC50 on α4β7 integrin and on α4β1 integrin were 7.00 to 8.00 and < 6.00, respectively.

As to `COc1cccc(CCN2CCC(F)(F)CC2)c1-c1cccc2c(C[C@H](NC(=O)C3(C(F)(F)F)CCN(CC(F)(F)F)CC3)C(=O)O)cccc12` [Compound 974], the figures for the pIC50 at α4β7 integrin and at α4β1 integrin were 7.00 to 8.00 and < 6.00, respectively.
